According to patent publication US4206235A, “Novel 2,5-dihalophenyl-β-substituted sulfone fungicides” (priority 1976, dated 1980):
≈ marks a conversion by molar mass, not a printed value. Where “and” joins values, the source holds several entries; their conditions need not be identical. Equal values may be shown once.

Assays:
common moulds = test: Activity against common moulds on plasticized PVC sheets; type: cell-based
Penicillium funiculosum = test: Halo test on plasticized PVC sheeting; type: cell-based; set-up: key to growth under the test sample (GUS): +: no reduction in growth; ±: slight reduction in growth; .-+.: moderate reduction in growth; -: complete reduction in growth
[1] = test system: Cladosporium cladosporoides; test: Halo test on plasticized PVC sheeting; type: cell-based; set-up: key to growth under the test sample (GUS): +: no reduction in growth; ±: slight reduction in growth; .-+.: moderate reduction in growth; -: complete reduction in growth
Paecilomyces varioti [2] = test: Agar incorporation test; type: cell-based; conditions: 120 h, 5 days at 28° C., P. varioti
Description: (§1) Pure cultures of fungi Paecilomyces varioti, Cladosporium cladosporides, Penicillium funivulosum, and Aspergillus niger were exposed to a range of dilutions of the compound viz: 10,000, 3,000, 1,000, 600, 300, 100, 30, 10, 1 ppm incorporated into agar via […]. The fungal plates were incubated for 5 days at 28° C. The plates were then assessed for either the presence or absence of growth and the minimum inhibitory concentration (MIC) in ppm recorded.

[3] = test system: Cladosporium cladosporides; test: Agar incorporation test; type: cell-based; conditions: 120 h, 5 days at 28° C.
Description: as §1

Aspergillus niger [4] = test: Agar incorporation test; type: cell-based; conditions: 120 h, 5 days at 28° C., A. niger
Description: as §1

Aspergillus flavus = test: Halo test on plasticized PVC sheeting; type: cell-based; set-up: key to growth under the test sample (GUS): +: no reduction in growth; ±: slight reduction in growth; .-+.: moderate reduction in growth; -: complete reduction in growth
Trichoderma viride = test: Halo test on plasticized PVC sheeting; type: cell-based; set-up: key to growth under the test sample (GUS): +: no reduction in growth; ±: slight reduction in growth; .-+.: moderate reduction in growth; -: complete reduction in growth
Pythium aphanidermatum = test: Fungitoxicity in culture media (agar), growth inhibition; type: cell-based; conditions: 50% inhibition of growth, read-out: ED50 (the source's name)
Description: (§2) Acetone solutions of the compound were mixed with an aliquot of distilled water and the fine suspension obtained was mixed with cooled but melted agar medium and poured into Petri dishes.
(§3) The tested fungi were grown on the solidified media. Growth of the fungus was measured and percent inhibition was calculated by comparing with the appropriate acetone-water controls. Media were usually Martin's or potato-dextrose agar media.
(§4) ED50 = effective dose, sufficient for the 50% inhibition of growth of the fungus, expressed in p.p.m.

Rhizopus stolonifer = test: as above; type: cell-based; conditions: 50% inhibition of growth, read-out: ED50 (the source's name)
Description: as §2, §3, §4

Sclerotinia rolfsil = test: as above; type: cell-based; conditions: 50% inhibition of growth, read-out: ED50 (the source's name)
Description: as §2, §3, §4

Rhizoctonia bataticola = test: as above; type: cell-based; conditions: Macrophomina phaseolina, 50% inhibition of growth, read-out: ED50 (the source's name)
Description: as §2, §3, §4

Rhizoctonia solani = test: as above; type: cell-based; conditions: 50% inhibition of growth, read-out: ED50 (the source's name)
Description: as §2, §3, §4

[5] = test system: Fusarium oxysporum sp. f.lycopersici; test: as above; type: cell-based; conditions: 50% inhibition of growth, read-out: ED50 (the source's name)
Description: as §2, §3, §4

Aspergillus niger [6] = test: Halo test on plasticized PVC sheeting; type: cell-based; set-up: key to growth under the test sample (GUS): +: no reduction in growth; ±: slight reduction in growth; .-+.: moderate reduction in growth; -: complete reduction in growth
Paecilomyces varioti [7] = test: Halo test on plasticized PVC sheeting; type: cell-based; set-up: key to growth under the test sample (GUS): +: no reduction in growth; ±: slight reduction in growth; .-+.: moderate reduction in growth; -: complete reduction in growth
[8] = test system: mixed spore suspension of Aspergillus flavus, Aspergillus niger, Paecilomyces varioti, Penicillium funiculosum, Trichoderma viride, Alternaria tenuis …; test: Weight Loss Test of PVC sheeting; conditions: 14 days at 28° C.; for % weight loss: single strip
Alternaria tenuis = test: Halo test on plasticized PVC sheeting; type: cell-based; set-up: key to growth under the test sample (GUS): +: no reduction in growth; ±: slight reduction in growth; .-+.: moderate reduction in growth; -: complete reduction in growth; conditions: for Zone of growth inhibition (halo): brackets = growth partially suppressed
Penicillium funivulosum = test: Agar incorporation test; type: cell-based; conditions: 120 h, 5 days at 28° C., P. funiculosum
Description: The fungal plates were incubated for 5 days at 28° C. The plates were then assessed for either the presence or absence of growth and the minimum inhibitory concentration (MIC) in ppm recorded.

two-spotted mite = test: Activity against the two-spotted mite
[9] = 0.5% in PVC sheeting, brackets = growth partially suppressed

SMILES: COC(=O)C(Cl)CS(=O)(=O)c1cc(Cl)ccc1Cl (stereo not drawn) [Example 3, 2,5-dichlorophenyl-β-carboxymethyl-β'-chloroethyl sulfone]
- inhibition of the growth of common moulds on PVC sheets (common moulds; 0.5% by weight, PVC plasticized with 30% dialkyl sebacate): Complete inhibition
- inhibition of fungi (common moulds; 0.5% in sheeting, halo test, seven fungi): all fungi were inhibited
- inhibition of fungal attack (common moulds; 0.5 and 1.0% in sheeting): virtual complete inhibition of fungal attack
- degree of inhibition against the seven fungi (common moulds; 1.0% in sheeting, halo test): good
- growth under the test sample (GUS) (Penicillium funiculosum; 0.5% in PVC sheeting): -
- Zone of growth inhibition (halo) (Penicillium funiculosum; [9]): 4 millimetres
- Zone of growth inhibition (halo) (Penicillium funiculosum; 1% in PVC sheeting): 8 millimetres
- growth under the test sample (GUS) (Penicillium funiculosum; 1% in PVC sheeting): -
- growth under the test sample (GUS) ([1]; 0.5% in PVC sheeting): -
- Zone of growth inhibition (halo) [1, 9]: 4 millimetres
- Zone of growth inhibition (halo) ([1]; 1% in PVC sheeting): 9 millimetres
- growth under the test sample (GUS) ([1]; 1% in PVC sheeting): -
- MIC (Paecilomyces varioti [2]): 100 µg/mL (≈ 302 µM)
- MIC [3]: 100 µg/mL (≈ 302 µM)
- MIC (Aspergillus niger [4]): 100 µg/mL (≈ 302 µM)
- Zone of growth inhibition (halo) (Aspergillus flavus; 0.5% in PVC sheeting): 1 millimetres
- growth under the test sample (GUS) (Aspergillus flavus; 0.5% in PVC sheeting): .-+.
- Zone of growth inhibition (halo) (Aspergillus flavus; 1% in PVC sheeting): 1 millimetres
- growth under the test sample (GUS) (Aspergillus flavus; 1% in PVC sheeting): .-+.
- Zone of growth inhibition (halo) (Trichoderma viride; 0.5% in PVC sheeting): 2 millimetres
- growth under the test sample (GUS) (Trichoderma viride; 0.5% in PVC sheeting): .-+.
- Zone of growth inhibition (halo) (Trichoderma viride; 1% in PVC sheeting): 5 millimetres
- growth under the test sample (GUS) (Trichoderma viride; 1% in PVC sheeting): .-+.
- IC50 (Pythium aphanidermatum): > 50 µg/mL
- IC50 (Rhizopus stolonifer): > 50 µg/mL
- IC50 (Sclerotinia rolfsil): 50 µg/mL (≈ 151 µM)
- IC50 (Rhizoctonia bataticola): 50 µg/mL (≈ 151 µM)
- IC50 (Rhizoctonia solani): 20 µg/mL (≈ 60.3 µM)
- IC50 [5]: > 50 µg/mL
- growth under the test sample (GUS) (Aspergillus niger [6]; 0.5% in PVC sheeting): -
- Zone of growth inhibition (halo) (Aspergillus niger [6]; [9]): 2 millimetres
- Zone of growth inhibition (halo) (Aspergillus niger [6]; 1% in PVC sheeting): 6 millimetres
- growth under the test sample (GUS) (Aspergillus niger [6]; 1% in PVC sheeting): -
- Zone of growth inhibition (halo) (Paecilomyces varioti [7]; 0.5% in PVC sheeting): 5 millimetres
- growth under the test sample (GUS) (Paecilomyces varioti [7]; 0.5% in PVC sheeting): -
- Zone of growth inhibition (halo) (Paecilomyces varioti [7]; 1% in PVC sheeting): 10 millimetres
- growth under the test sample (GUS) (Paecilomyces varioti [7]; 1% in PVC sheeting): -
- Mean % loss as plasticizer ([8]; 0.5%): 1.8%
- Mean % weight loss ([8]; 0.5%): 0.6%
- % weight loss ([8]; 0.5%): 0.7% and 0.6% and 0.4% and 0.5%
- Mean % loss as plasticizer ([8]; 1.0%): 0.6%
- Mean % weight loss ([8]; 1.0%): 0.2%
- % weight loss ([8]; 1.0%): 0.4% and 0.1% and 0.01% and 0.2%
- growth under the test sample (GUS) (Alternaria tenuis; 0.5% in PVC sheeting): -
- Zone of growth inhibition (halo) (Alternaria tenuis; 0.5% in PVC sheeting): 5 millimetres
- growth under the test sample (GUS) (Alternaria tenuis; 1% in PVC sheeting): -
- Zone of growth inhibition (halo) (Alternaria tenuis; 1% in PVC sheeting): 10 millimetres
- MIC (Penicillium funivulosum): 30 µg/mL (≈ 90.5 µM)

SMILES: O=S(=O)(C=C(Cl)Cl)c1cc(Cl)ccc1Cl [Example 4, 2,5-dichlorophenyl-β, β-dichlorovinyl sulfone]
- activity against the two-spotted mite (two-spotted mite): strong activity
- IC50 (Pythium aphanidermatum): 1 µg/mL (≈ 3.27 µM)
- IC50 (Sclerotinia rolfsil): 10 µg/mL (≈ 32.7 µM)
- IC50 (Rhizoctonia bataticola): 5 µg/mL (≈ 16.3 µM)
- IC50 (Rhizoctonia solani): 5 µg/mL (≈ 16.3 µM)
- IC50 [5]: 5 µg/mL (≈ 16.3 µM)
